Data taken from patent US20250250252A1, “PIPERIDINYLBENZONITRILE DERIVATIVES AS INHIBITORS OF GLUTAMINYL-PEPTIDE CYCLOTRANSFERASE AND GLUTAMINYL-PEPTIDE CYCLOTRANSFERASE LIKE PROTEIN” (Boehringer Ingelheim International GmbH, priority 2024, published 2025).

Test system: SIRPα signalling induced by A549 cells
Experiment: Assay B: SIRPα signalling assay using A549 cells
Type: cell-based
Details: Homo sapiens, read-out: Inhibition of SIRPα signalling induced by A549 cells: IC50
Procedure: Two cell types are independently used: the Raji cell line (lymphoblast-like human cell line derived from B lymphocytes from a Burkitt's lymphoma patient in 1963) and A549 cells (adenocarcinomic human alveolar basal epithelial cells).
Test compounds were dissolved in 100% DMSO and serially diluted into a white 384-well microtiter cell culture plate (PerkinElmer #60076780 in case of Raji assay; PDL-coated plates Greiner #781945 in case of A549 assay). 5000 Raji cells (ATCC #CC86) or 5000 A549 cells (ATCC #CCL-185) in Assay Complete Cell Plating reagent 30 (DiscoverX 93-0563R30B) were added per well. The assay plate was incubated for 48 h at 37° C., 95% humidity and 5% CO2. 15000 reporter cells (Jurkat PathHunter SIRPαV1, DiscoverX #93-1135C19) were added to each well, and the plate was incubated for 5 h at 37° C., 95% humidity and 5% CO2. Bioassay reagent 1 of the PathHunter Bioassay detection kit (DiscoverX 93-0001) was added to each well of the plate using a multichannel pipette followed by a 15 min incubation at room temperature. Afterwards bioassay reagent 2 was added followed by 60 min incubation at room temperature (incubation in the dark).
The analysis of the data was performed using the luminescence signal generated by betagalactosidase in the PathHunter reporter cell line. The luminescence measurement was done using a Pherastar Multi-Mode Reader. Dose-response curves & IC50 data were calculated with 4-parameter sigmoidal dose response formula.

Row | SMILES | IC50 [nM]
1 | Cn1cc(-c2cc(C#N)c(N3CCC(F)(c4nncn4C)CC3)c(-c3ccc(F)nc3)c2)cn1 [Example 5] | 25
2 | Cn1cnnc1C1(F)CCN(c2c(C#N)cc(C(C)(C)O)cc2-c2ccc(F)nc2)CC1 [Example 1] | 88
3 | Cn1cnnc1C1(F)CCN(c2c(C#N)cc(-c3cnc(C(F)(F)F)nc3)cc2-c2ccc(F)nc2)CC1 [Example 9] | 67
4 | Cn1cc(-c2ccc(-c3ccc(F)nc3)c(N3CCC(c4nncn4C)CC3)c2C#N)cn1 [Compound 35, reference compound] | 9
5 | Cn1cnnc1C1CCN(c2c(-c3ccc(F)nc3)ccc(-c3ccnc(N)c3)c2C#N)CC1 [Compound 44, reference compound] | 67

Biological target: QPCTL (Homo sapiens (Human), UniProt Q9NXS2)
Experiment: Assay A: biochemical QPCTL activity assay (MALDI-TOF MS)
Details: read-out: Inhibition of QPCTL: IC50
Procedure: (§1) QPCT or QPCTL dependent conversion of N-terminal glutamine to pyroglutamate of CD47 was monitored via MALDI-TOF MS. Test compounds were dissolved in 100% DMSO and serially diluted into clear 1,536-well microtiter plates. Enzymatic reactions were set up in assay buffer containing 20 mM Tris pH 7.5, 0.1 mM TCEP, 0.01% BSA, and 0.001% Tween20. […] The plates were incubated for 10 min in a humidified incubator at 24° C. Subsequently, 2.5 μL of CD47 peptide substrate surrogate (^19[…]^33) was added to each well (final concentration: 10 μM for QPCTL/20 μM for QPCT). The plates were mixed for 30 sec at 1,000 rpm and subsequently incubated for 40 min in a humidified incubator at 24° C. […] The plates were sealed with an adhesive foil, mixed for 30 s at 1,000 rpm and stored at room temperature until preparation of the MALDI target plates. […] QPCT or QPCTL activity was monitored by calculating the ratio between product and internal standard signals followed by normalization to high (100% activity) and low (0% activity) controls. Determination of compound potencies was obtained by fitting the dose-response data to a four-parameter logistical equation.

Sequence of QPCTL (Q9NXS2 whole entry): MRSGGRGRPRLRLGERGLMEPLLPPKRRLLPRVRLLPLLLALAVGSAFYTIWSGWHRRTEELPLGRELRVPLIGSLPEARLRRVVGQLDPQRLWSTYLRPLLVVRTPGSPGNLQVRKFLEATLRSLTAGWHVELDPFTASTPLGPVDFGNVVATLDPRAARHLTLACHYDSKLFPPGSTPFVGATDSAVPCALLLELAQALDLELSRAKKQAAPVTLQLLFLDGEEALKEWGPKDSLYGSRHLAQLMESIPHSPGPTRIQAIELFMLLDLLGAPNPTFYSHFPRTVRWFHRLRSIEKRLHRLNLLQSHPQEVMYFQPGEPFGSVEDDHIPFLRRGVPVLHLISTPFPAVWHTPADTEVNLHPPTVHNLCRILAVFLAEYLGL

Row | SMILES | IC50 [nM]
6 | Cn1cc(-c2cc(C#N)c(N3CCC(F)(c4nncn4C)CC3)c(-c3ccc(F)nc3)c2)cn1 [Example 5] | 2
7 | Cn1cnnc1C1(F)CCN(c2c(C#N)cc(C(C)(C)O)cc2-c2ccc(F)nc2)CC1 [Example 1] | 1
8 | Cn1cnnc1C1(F)CCN(c2c(C#N)cc(-c3cnc(C(F)(F)F)nc3)cc2-c2ccc(F)nc2)CC1 [Example 9] | 3
9 | Cn1cc(-c2ccc(-c3ccc(F)nc3)c(N3CCC(c4nncn4C)CC3)c2C#N)cn1 [Compound 35, reference compound] | 2
10 | Cn1cnnc1C1CCN(c2c(-c3ccc(F)nc3)ccc(-c3ccnc(N)c3)c2C#N)CC1 [Compound 44, reference compound] | 1

Test system: not listed separately
Experiment: Assay C: Permeability in CACO-2 cells
Type: in vitro ADME
Details: human, Caco-2, pH 7.2; Assay C, permeability B-A/permeability A-B; read-out: Efflux Ratio
Procedure: Caco-2 cells (1-2×10^5 cells/1 cm^2 area) are seeded on filter inserts (Costar transwell polycarbonate or PET filters, 0.4 μm pore size) and cultured (DMEM) for 10 to 25 days. Compounds are dissolved in appropriate solvent (like DMSO, 1-20 mM stock solutions). […] The transport solution (TL) is applied to the apical or basolateral donor side for measuring A-B or B-A permeability (3 filter replicates), respectively. Samples are collected at the start and end of experiment from the donor and at various time intervals for up to 2 hours also from the receiver side for concentration measurement by HPLC-MS/MS or scintillation counting. Sampled receiver volumes are replaced with fresh receiver solution.
Efflux ratio (ER)=permeability B-A/permeability A-B

Row | SMILES | efflux ratio
11 | Cn1cc(-c2cc(C#N)c(N3CCC(F)(c4nncn4C)CC3)c(-c3ccc(F)nc3)c2)cn1 [Example 5] | 6.7
12 | Cn1cnnc1C1(F)CCN(c2c(C#N)cc(C(C)(C)O)cc2-c2ccc(F)nc2)CC1 [Example 1] | 11.9
13 | Cn1cnnc1C1(F)CCN(c2c(C#N)cc(-c3cnc(C(F)(F)F)nc3)cc2-c2ccc(F)nc2)CC1 [Example 9] | 5.2
14 | Cn1cc(-c2ccc(-c3ccc(F)nc3)c(N3CCC(c4nncn4C)CC3)c2C#N)cn1 [Compound 35, reference compound] | 12.2
15 | Cn1cnnc1C1CCN(c2c(-c3ccc(F)nc3)ccc(-c3ccnc(N)c3)c2C#N)CC1 [Compound 44, reference compound] | 47.9

Same assay, conditions: human, pH 7.2; Assay C, CACO-2 cells

Row | SMILES | Papp A→B [×10⁻⁶ cm/s]
16 | Cn1cc(-c2cc(C#N)c(N3CCC(F)(c4nncn4C)CC3)c(-c3ccc(F)nc3)c2)cn1 [Example 5] | 5.4
17 | Cn1cnnc1C1(F)CCN(c2c(C#N)cc(C(C)(C)O)cc2-c2ccc(F)nc2)CC1 [Example 1] | 4.2
18 | Cn1cnnc1C1(F)CCN(c2c(C#N)cc(-c3cnc(C(F)(F)F)nc3)cc2-c2ccc(F)nc2)CC1 [Example 9] | 4.8
19 | Cn1cc(-c2ccc(-c3ccc(F)nc3)c(N3CCC(c4nncn4C)CC3)c2C#N)cn1 [Compound 35, reference compound] | 4.9
20 | Cn1cnnc1C1CCN(c2c(-c3ccc(F)nc3)ccc(-c3ccnc(N)c3)c2C#N)CC1 [Compound 44, reference compound] | 0.5

Test system: SIRPα signalling induced by Raji cells
Experiment: Assay B: SIRPα signalling assay using Raji cells
Type: cell-based
Details: Homo sapiens, read-out: Inhibition of SIRPα signalling induced by Raji cells: IC50
Procedure: Bioassay reagent 1 of the PathHunter Bioassay detection kit (DiscoverX 93-0001) was added to each well of the plate using a multichannel pipette followed by a 15 min incubation at room temperature. Afterwards bioassay reagent 2 was added followed by 60 min incubation at room temperature (incubation in the dark).
The analysis of the data was performed using the luminescence signal generated by betagalactosidase in the PathHunter reporter cell line. The luminescence measurement was done using a Pherastar Multi-Mode Reader.

Row | SMILES | IC50 [nM]
21 | Cn1cc(-c2cc(C#N)c(N3CCC(F)(c4nncn4C)CC3)c(-c3ccc(F)nc3)c2)cn1 [Example 5] | 52
22 | Cn1cnnc1C1(F)CCN(c2c(C#N)cc(C(C)(C)O)cc2-c2ccc(F)nc2)CC1 [Example 1] | 26
23 | Cn1cnnc1C1(F)CCN(c2c(C#N)cc(-c3cnc(C(F)(F)F)nc3)cc2-c2ccc(F)nc2)CC1 [Example 9] | 108
24 | Cn1cc(-c2ccc(-c3ccc(F)nc3)c(N3CCC(c4nncn4C)CC3)c2C#N)cn1 [Compound 35, reference compound] | 28
25 | Cn1cnnc1C1CCN(c2c(-c3ccc(F)nc3)ccc(-c3ccnc(N)c3)c2C#N)CC1 [Compound 44, reference compound] | 121

Test system: CYP3A4 mRNA
Experiment: Assay D: CYP induction screening assay in primary human hepatocytes
Type: in vitro ADME
Details: 48 h
Procedure: Cryopreserved plateable human hepatocytes (single donor, BioIVT) were thawed and plated in Collagen-I coated 96-well-plates at a cell density of 0.07 million cells per well.
After a 6 h attachment period, the seeding medium was replaced by serum-free William's medium E supplemented with Matrigel (0.25 mg/ml) and allowed to recover overnight. 24 h post-seeding, serum-free Williams E medium containing the test compound at a final concentration of 10 μM and a final DMSO content of 0.1% and 0.1% DMSO (solvents treated control), respectively, was added to predefined wells. Exposure solutions were renewed after 24 h.
After 48 h of treatment in total, the effect of the test compounds on CYP3A4 mRNA expression was assessed using the QuantiGene Plex Gene Expression Assay. Hepatocytes were lysed and total RNA was extracted using the QuantiGene Sample Processing Kit according to the instructions of the manufacturer.
mRNA quantification was conducted using a customized QuantiGene Plex Panel to analyse CYP3A4 and the housekeeper genes RPL32, EIF4E2 and GUSB according to the instructions of the manufacturer and measured on a Luminex™ instrument. Signal was reported as median fluorescence intensity (MFI), which is proportional to the number of target RNA molecules present in the sample.
For calculation of CYP3A4 mRNA induction, the signal for CYP3A4 was normalized against the geometric mean of the signal obtained for the housekeeper genes for hepatocytes exposed to test compounds in relation to solvent-treated samples according to the following equation:
n-fold induction=(MFI CYP3A4 (treated)/Xgeo MFI (RPL32,EIF4E2,GUSB))/(MFI CYP3A4 (solvent control)/Xgeo MFI (RPL32,EIF4E2,GUSB))

Row | SMILES | n-fold induction of CYP3A4 at 10 μM [n-fold]
26 | Cn1cc(-c2cc(C#N)c(N3CCC(F)(c4nncn4C)CC3)c(-c3ccc(F)nc3)c2)cn1 [Example 5] | 7.7
27 | Cn1cnnc1C1(F)CCN(c2c(C#N)cc(C(C)(C)O)cc2-c2ccc(F)nc2)CC1 [Example 1] | 2.2
28 | Cn1cnnc1C1(F)CCN(c2c(C#N)cc(-c3cnc(C(F)(F)F)nc3)cc2-c2ccc(F)nc2)CC1 [Example 9] | 1.4
29 | Cn1cc(-c2ccc(-c3ccc(F)nc3)c(N3CCC(c4nncn4C)CC3)c2C#N)cn1 [Compound 35, reference compound] | 3.0
30 | Cn1cnnc1C1CCN(c2c(-c3ccc(F)nc3)ccc(-c3ccnc(N)c3)c2C#N)CC1 [Compound 44, reference compound] | 1.0

Test system: murine hepatocytes
Experiment: Assay E: Stability in murine hepatocytes
Type: in vitro ADME, mouse
Details: 1 μM
Procedure: The metabolic degradation of the test compound is assayed in a murine hepatocyte suspension.
Murine hepatocytes (typically cryopreserved) are incubated in an appropriate buffer system (e.g. Dulbecco's modified eagle medium plus 3.5 μg glucagon/500 mL, 2.5 mg insulin/500 mL and 3.75 mg/500 mL hydrocortison) containing 5% species serum.
Following a (typically) 30 min preincubation in an incubator (37° C., 10% CO2) 5 μl of test compound solution (80 μM; from 2 mM in DMSO stock solution diluted 1:25 with medium) are added into 395 μl hepatocyte suspension (cell density in the range 0.25-5 Mio cells/mL, typically 1 Mio cells/mL; final concentration of test compound 1 μM, final DMSO concentration 0.05%).
The cells are incubated for six hours (incubator, orbital shaker) and samples (2 μl) are taken at 0, 0.5, 1, 2, 4 and 6 hours. Samples are transferred into acetonitrile and pelleted by centrifugation (5 min). The supernatant is transferred to a new 96-deepwell plate, evaporated under nitrogen and resuspended.
CLint is calculated as follows CL_[…]=Dose/AUC=(C0/CD)/(AUD+clast/k)×1000/60. C0: initial concentration in the incubation [μM], CD: cell density of vital cells [10e6cells/mL], AUD: area under the data [μM×h], clast: concentration of last data point [μM], k: slope of the regression line for parent decline [h−1].
The calculated in vitro hepatic intrinsic clearance can be scaled up to the intrinsic in vivo hepatic Clearance and used to predict hepatic in vivo blood clearance (CL) by the use of a liver model (well stirred model).
CL_[…]_INVIVO[ml/min/kg]=(CL_[…][μL/min/10e6cells]×hepatocellularity[10e6cells/g liver]×liver factor[g/kg bodyweight])/1000
CL[ml/min/kg]=CL_[…]_INVIVO[ml/min/kg]×hepatic blood flow[ml/min/kg]/(CL_[…]_INVIVO[ml/min/kg]+hepatic blood flow[ml/min/kg])
Hepatocellularity,mouse:120×10e6cells/g liver
Liver factor,mouse:55 g/kg bodyweight
Blood flow,mouse:90 ml/(min×kg)

Row | SMILES | Mouse Hepatocyte Stability QH [%]
31 | Cn1cc(-c2cc(C#N)c(N3CCC(F)(c4nncn4C)CC3)c(-c3ccc(F)nc3)c2)cn1 [Example 5] | <12
32 | Cn1cnnc1C1(F)CCN(c2c(C#N)cc(C(C)(C)O)cc2-c2ccc(F)nc2)CC1 [Example 1] | 23
33 | Cn1cnnc1C1(F)CCN(c2c(C#N)cc(-c3cnc(C(F)(F)F)nc3)cc2-c2ccc(F)nc2)CC1 [Example 9] | 20
34 | Cn1cc(-c2ccc(-c3ccc(F)nc3)c(N3CCC(c4nncn4C)CC3)c2C#N)cn1 [Compound 35, reference compound] | 16
35 | Cn1cnnc1C1CCN(c2c(-c3ccc(F)nc3)ccc(-c3ccnc(N)c3)c2C#N)CC1 [Compound 44, reference compound] | 65

Biological target: QPCT (Homo sapiens (Human), UniProt Q16769)
Experiment: Assay A: biochemical QPCT activity assay (MALDI-TOF MS)
Details: read-out: Inhibition of QPCT: IC50
Procedure: as §1

Sequence of QPCT (Q16769 29-361): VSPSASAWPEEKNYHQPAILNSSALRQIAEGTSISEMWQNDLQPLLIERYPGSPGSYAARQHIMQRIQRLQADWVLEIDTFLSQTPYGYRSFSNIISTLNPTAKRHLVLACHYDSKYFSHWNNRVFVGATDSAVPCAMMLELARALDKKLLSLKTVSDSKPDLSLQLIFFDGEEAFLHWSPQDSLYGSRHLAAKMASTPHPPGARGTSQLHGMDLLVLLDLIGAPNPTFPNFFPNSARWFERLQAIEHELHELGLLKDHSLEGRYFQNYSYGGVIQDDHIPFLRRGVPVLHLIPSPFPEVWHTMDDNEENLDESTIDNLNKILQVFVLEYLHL

Row | SMILES | IC50 [nM]
36 | Cn1cc(-c2cc(C#N)c(N3CCC(F)(c4nncn4C)CC3)c(-c3ccc(F)nc3)c2)cn1 [Example 5] | 2
37 | Cn1cnnc1C1(F)CCN(c2c(C#N)cc(C(C)(C)O)cc2-c2ccc(F)nc2)CC1 [Example 1] | 1
38 | Cn1cnnc1C1(F)CCN(c2c(C#N)cc(-c3cnc(C(F)(F)F)nc3)cc2-c2ccc(F)nc2)CC1 [Example 9] | 6
39 | Cn1cc(-c2ccc(-c3ccc(F)nc3)c(N3CCC(c4nncn4C)CC3)c2C#N)cn1 [Compound 35, reference compound] | 4
40 | Cn1cnnc1C1CCN(c2c(-c3ccc(F)nc3)ccc(-c3ccnc(N)c3)c2C#N)CC1 [Compound 44, reference compound] | 5
